Counter-ions that a name gives are not always drawn. Values belong to the molecule of their own block, whether it stands above or below them.
Key:
[1] = biological target: partially purified pig heart adenosine kinase (Sus scrofa, UniProt A0A5G2R0F5); assay: biochemical; conditions: pig heart adenosine kinase; 0.5 μM adenosine, pH 7.0, 20 minutes at 37° C; read-out: AK Inhibition (IC50)
Experimental: Adenosine kinase activity was measured essentially as described by Yamada et al Biochim. Biophys. Acta 660, 36-43 (1988) with a few minor modifications. Assay mixtures contained 50 mM TRIS-maleate buffer, pH 7.0, 0.1% BSA, 1 mM ATP 1 mM MgCl2, 0.5 μM [U-^14 C] adenosine (400-600 mCi/mmol) and varying duplicate concentrations of inhibitor. The reactions were initiated by addition of approximately 0.1 μU partially purified pig heart adenosine kinase, where one unit is defined as that amount of enzyme required to phosphorylate 1 μmol adenosine per minute. The reactions were incubated for 20 minutes at 37° C. The assay was quenched upon spotting 30 μL aliquots onto 2 cm^2 pieces of Whatman DE81 anion exchange paper. The paper squares were washed for 3 minutes in 6 L distilled/deionized water to remove the unreacted adenosine. […] The amount of ^14 C-AMP was quantified by scintillation counting.

Water solubility = format: physicochemical
Experimental: The sample was sonicated for a period of up to 20 minutes. If a solution was not obtained, further solvent was added and the process was repeated until a clear solution was obtained, and the results were recorded. Solutions used were 50 mM potassium biphthalate (pH 4); 100 mM glycine (pH 9); 25 mM sodium carbonate and 25 mM sodium bicarbonate (pH 10); or deionized water (DI).

male SA rats [2] = assay: Analgesic activity, hot plate; format: in vivo; conditions: Rattus norvegicus, ip
male SA rats [3] = assay: Analgesic activity, tail flick; format: in vivo; conditions: Rattus norvegicus, ip
Rats = assay: Anti-inflammatory activity, carrageenan paw; format: in vivo, rat; conditions: 10 mg/kg, swelling after 3 hours
Experimental: Carrageenan (Type λ) was suspended in sterile PBS at 1% (w/v), autoclaved for 30 minutes, and stored at room temperature. Rats were pretreated with vehicle or AK inhibitor (10 mg/kg) by oral gavage or i.p. administration and the volume of the left hind paw was measured using a water displacement plethysmometer (Stoelting Co., Wood Dale, Ill.). One hour after oral treatment or 30 minutes after i.p. treatment, the rats were briefly anesthetized, and 0.1 ml of the carrageenan solution was injected subcutaneously into the planar surface of the left hind paw. The ensuing paw swelling was measured by plethysmometry after 3 hours. The paw volume in millileters was subtracted from the pre-injection paw volume. Data are presented as the percent inhibition of paw swelling in AK inhibitor treated animals, compared to vehicle treated control animals.

male SA rats [4] = assay: Anticonvulsant activity, maximal electroshock (MES) model; format: in vivo; conditions: Rattus norvegicus, 1 h
Experimental: The anticonvulsant activity of the tested compounds was evaluated in male SA rats (100-150 g, Simonsen) using the maximal electroshock (MES) model described in Swinyard et al., Antiepileptic Drugs, 3d Ed. at 85-102 (Levy, et al., eds.), N.Y.: Raven Press (1989). The rats were maintained on a 12/12 light/dark cycle in temperature controlled facilities with free access to food and water. For p.o. administration, the animals are fasted overnight, prior to the experiment. One hour prior to seizure testing, the animals were injected interperitoneally (ip) or orally (per os, […]) with one of various doses of test compound dissolved in DMSO or PEG 400.
This endpoint was expressed as the percentage of animals in which the response was inhibited.

Female SA rats = assay: Liver toxicity assay; format: in vivo, rat; conditions: iv infusion 2 x 37.5 μmole/kg, 12 hours after second dose
Experimental: Female SA rats (150-200 g) are anesthetized with halothane and cannulated via the internal jugular vein. The animals are allowed to recover for 3 days. At this time, 37.5 μmole/kg of an AK inhibitor is dissolved in 50% PEG400 and infused through the jugular catheter over 20 minutes. Twelve hours later, an additional 37.5 μmole/kg is infused over 20 minutes (total dose=75 μmole/kg). […] Liver enzymes (serum glutamic-oxaloacetic transaminase (SGOT), serum glutamic-pyruvic transaminase (SGPT), alkaline phosphatase) and total bilirubin in the serum samples are determined by a commercial laboratory.

mice = conditions: cited from earlier work
anesthetized rats = conditions: cited from earlier work
[5] = ip, 30 minutes before carrageenan
[6] = po, one hour before carrageenan
[7] = po, one hour after dosing, fasted
[8] = pH 4 (50 mM potassium biphthalate)

Chain of partially purified pig heart adenosine kinase (A0A5G2R0F5 1-362): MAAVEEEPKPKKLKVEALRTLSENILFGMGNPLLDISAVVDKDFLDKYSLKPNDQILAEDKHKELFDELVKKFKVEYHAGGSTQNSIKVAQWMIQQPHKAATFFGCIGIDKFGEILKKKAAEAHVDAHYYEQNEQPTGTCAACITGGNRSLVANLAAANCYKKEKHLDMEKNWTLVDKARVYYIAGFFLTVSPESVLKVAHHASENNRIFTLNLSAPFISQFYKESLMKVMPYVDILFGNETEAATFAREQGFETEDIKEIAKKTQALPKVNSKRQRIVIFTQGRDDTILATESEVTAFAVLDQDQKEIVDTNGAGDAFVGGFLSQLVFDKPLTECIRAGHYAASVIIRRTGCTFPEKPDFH

IC50 [1]: 5 nM
Compound: C[C@H]1O[C@@H](n2cc(-c3ccccc3)c3c(Nc4ccc(C(N)=NO)cc4)ncnc32)[C@H](O)[C@@H]1O [Compound 37, 4-N-(4-amidoximephenyl)amino-5-phenyl-7-(5-deoxy-1-β-D-ribofuranosylpyrrolo[2,3-d]pyrimidine hydrochloride]

solubility (Water solubility; sodium carbonate/sodium bicarbonate buffer, pH 10 (25 mM sodium carbonate and 25 mM sodium bicarbonate)): > 1000 µg/mL
Compound: C[C@H]1O[C@@H](n2cc(-c3ccccc3)c3c(Nc4ccc(NS(=O)(=O)C(F)(F)F)cc4)ncnc32)[C@H](O)[C@@H]1O [Compound 8, 4-N-(4-N-trifluoromethanesulfonylaminophenyl)amino-5-phenyl-7-(5-deoxy-1-β-D-ribofuranosyl) pyrrolo(2,3-d)pyrimidine]

water solubility (Water solubility; pH suitable for i.v. administration (e.g. pH 4 to 10)): less than 20 μg/ml
Compound: C[C@H]1O[C@@H](n2cc(-c3ccccc3)c3c(Nc4ccccc4)ncnc32)[C@H](O)[C@@H]1O [5-phenyl-4-N-phenylamino-7-(5-deoxy-1-β-D-ribofuranosyl)pyrrolo[2,3-d]pyrimidine, reference compound]

IC50 [1]: 220 nM
Compound: OC[C@@H]1O[C@@H](n2cc(I)c3c(NCc4ccccn4)ncnc32)[C@H](O)[C@@H]1O [Compound 46, 4-N-(2-pyridylmethyl)amino-5-iodo-7-(α-L-lyxofuranosyl)pyrrolo(2,3-d)pyrimidine]

IC50 [1]: 120 nM
Compound: C[C@H]1O[C@@H](n2cc(I)c3c(NCc4cccnc4)ncnc32)[C@H](O)[C@@H]1O [Compound 44, 4-N-(3-pyridylmethylamino)-5-iodo-7-(5-deoxy-1-β-D-ribofuranosyl)pyrrolo[2,3-d]pyrimidine]

IC50 [1]: 70 nM
Compound: C[C@H]1O[C@@H](n2cc(I)c3c(NCc4ccccn4)ncnc32)[C@H](O)[C@@H]1O [Compound 41, 4-N-(2-Pyridylmethylamino)-5-iodo-7-(5-deoxy-1 -β-D-ribofuranosyl)pyrrolo[2,3-d]pyrimidine]
ED50 (male SA rats [2]): 1.2 mg/kg | ED50 (male SA rats [3]): < 1 mg/kg | Carrageenan Paw (% inhibition) of paw swelling (Rats; [5]): 84.8% | Carrageenan Paw (% inhibition) of paw swelling (Rats; [6]): 90.6%

Compound: C[C@H]1O[C@@H](n2cc(I)c3c(NCc4ccncc4)ncnc32)[C@H](O)[C@@H]1O [Compound 42, 4-N-(4-pyridylmethylamino)-5-iodo-7-(5-deoxy-1-β-D-ribofuranosyl)pyrrolo[2,3-d]pyrimidine]
ED50 (male SA rats [4]; ip): 2 mg/kg

IC50 [1]: 3000 nM | solubility (Water solubility; pH 9 (100 mM glycine)): > 1000 µg/mL
Compound: CC(=O)NS(=O)(=O)c1ccc(Nc2ncnc3c2c(-c2ccccc2)cn3[C@@H]2O[C@H](C)[C@@H](O)[C@H]2O)cc1 [Compound 40]
ED50 (male SA rats [4]; ip): > 5 mg/kg

IC50 [1]: 300 nM
Compound: C[C@H]1O[C@@H](n2cc(-c3cccnc3)c3c(NCc4ccccn4)ncnc32)[C@H](O)[C@@H]1O [Compound 48, 4-N-(2-pyridylmethyl)amino-5-(3-pyridino)-7-(5-deoxy-1-β-D-ribofuranosyl)pyrrolo[2,3-d]pyrimidine]

IC50 [1]: 2 nM | solubility (Water solubility; [8]): > 1000 µg/mL
Compound: C[C@H]1O[C@@H](n2cc(-c3ccccc3)c3c(Nc4ccc(CCN5CCOCC5)cc4)ncnc32)[C@H](O)[C@@H]1O [Compound 3, 4-N[2-(4-morpholino)ethylphenyl]amino-5-phenyl-7-(5-deoxy-β-D-ribofuranosyl)pyrrolo[2,3-d]pyrimidine]
ED50 (male SA rats [4]; [7]): > 40 mg/kg

solubility (Water solubility; [8]): > 1000 µg/mL
Compound: C[C@H]1O[C@@H](n2cc(-c3ccccc3)c3c(Nc4ccc(CCN)cc4)ncnc32)[C@H](O)[C@@H]1O [Compound 22, 4-N-(2-Aminoethylphenyl)amino-5-phenyl-7-(5-deoxy-β-D-ribofuranosyl)pyrrolo[2,3-d]pyrimidine]
Carrageenan Paw (% inhibition) of paw swelling (Rats; [5]): 31.6% | Carrageenan Paw (% inhibition) of paw swelling (Rats; [6]): 12.4%

IC50 [1]: 1 nM | solubility (Water solubility; [8]): > 1000 µg/mL
Compound: CCN(CC)CCc1ccc(Nc2ncnc3c2c(-c2ccccc2)cn3[C@@H]2O[C@H](C)[C@@H](O)[C@H]2O)cc1 [Compound 6, 4-N[2-N,N-diethylaminoethylphenyl]amino-5-phenyl-7-(5-deoxy-β-D-ribofuranosyl)pyrrolo[2,3-d]pyrimidine]

Compound: NC[C@H]1O[C@@H](n2nc(Br)c3c(N)ncnc32)[C@H](O)[C@@H]1O [REF. B, 4amino-1-(5-amino-5-deoxy-1-D-ribofuranosyl)-3-bromopyrazolo[3,4d]pyrimidne HCL]
Alkaline Phosphatase (Female SA rats): 113 IU/L | SGOT (Female SA rats): 100 IU/L | SGPT (Female SA rats): 41 IU/L | Total Bilirubin (Female SA rats): 0.30 mg/dL

IC50 [1]: 67 nM
Compound: C[C@H]1O[C@@H](n2cc(-c3ccccc3)c3c(NCc4ccncc4)ncnc32)[C@H](O)[C@@H]1O [Compound 49, 4-N-(4-pyridylmethyl)amino-5-phenyl-7-(5-deoxy-1-β-D-ribofuranosyl)-pyrrolo[2,3-d]pyrimidine]
ED50 (male SA rats [4]; [7]): 40 mg/kg

Compound: C[C@H]1O[C@@H](n2cc(I)c3c(N)ncnc32)[C@H](O)[C@@H]1O [REF. A]
Alkaline Phosphatase (Female SA rats): 163 IU/L | SGOT (Female SA rats): 508 IU/L | SGPT (Female SA rats): 76 IU/L | Total Bilirubin (Female SA rats): 0.76 mg/dL | general flaccidity (skeletal muscle relaxation) (mice): pronounced general flaccidity | hypothermia (mice): hypothermia | spontaneous locomotor activity (mice): much-reduced spontaneous locomotor activity | blood pressure (anesthetized rats): decrease blood pressure | heart rate (anesthetized rats): decrease blood pressure and heart rate

IC50 [1]: 500 nM
Compound: C[C@H]1O[C@@H](n2cc(I)c3c(NCc4nc5ccccc5[nH]4)ncnc32)[C@H](O)[C@@H]1O [Compound 45, 4-N-(2-benzimidazolylmethyl)amino-5-iodo-7-(5-deoxy-1-β-D-ribofuranosyl) pyrrolo[(2,3-d)]pyrimidine]

IC50 [1]: 55 nM
Compound: C[C@H]1O[C@@H](n2cc(-c3cccnc3)c3c(Nc4ccccc4)ncnc32)[C@H](O)[C@@H]1O [Compound 47, 4-N-Phenylamino-5-(3-pyridino)-7-(5-deoxy-1-β-D-ribofuranosyl) pyrrolo[2,3-d]pyrimidine]
Carrageenan Paw (% inhibition) of paw swelling (Rats; [5]): -4.4% | Carrageenan Paw (% inhibition) of paw swelling (Rats; [6]): 9.8%

IC50 [1]: 1 nM | solubility (Water solubility; [8]): > 1000 µg/mL
Compound: C[C@H]1O[C@@H](n2cc(-c3ccccc3)c3c(Nc4ccc(CCN(C)C)cc4)ncnc32)[C@H](O)[C@@H]1O [Compound 7, 4-N[2-N,N-dimethylaminoethylphenyl]amino-5-phenyl-7-(5-deoxy-β-D-fibofuranosyl)pyrrolo[2,3-d]pyrimidine]
Carrageenan Paw (% inhibition) of paw swelling (Rats; [5]): 19.0% | Carrageenan Paw (% inhibition) of paw swelling (Rats; [6]): 7.7%

solubility (Water solubility; [8]): > 1000 µg/mL
Compound: C[C@H]1O[C@@H](n2cc(-c3ccccc3)c3c(Nc4ccc(CCN5CCNCC5)cc4)ncnc32)[C@H](O)[C@@H]1O [Compound 4, 4-N[2-(1-piperazino)ethylphenyl]amino-5-phenyl-7-(5-deoxy-β-D-ribofuranosyl)pyrrolo[2,3-d]pyrimidine]
Carrageenan Paw (% inhibition) of paw swelling (Rats; [5]): 39.9% | Carrageenan Paw (% inhibition) of paw swelling (Rats; [6]): 2.5%

IC50 [1]: 1 nM | solubility (Water solubility; deionized water (DI)): > 5000 µg/mL
Compound: CCN(CC)CCNCCc1ccc(Nc2ncnc3c2c(-c2ccccc2)cn3[C@@H]2O[C@H](C)[C@@H](O)[C@H]2O)cc1 [Compound 5, 4-N[2-(2-N,N-diethylaminoethyleneamino)ethylphenyl]amino-5-phenyl-7-(5-deoxy-β-D-ribofuranosyl)pyrrolo[2,3-d]pyrimidine]
Carrageenan Paw (% inhibition) of paw swelling (Rats; [5]): -3.4% | Carrageenan Paw (% inhibition) of paw swelling (Rats; [6]): 4.1%
